The values below come from patent US12427179B2, “Compositions and methods for diagnosis and treatment of neurodegenerative diseases” (EPITRACKER, INC., priority 2019, dated 2025).

Structures are written as SMILES.

The subject of assay [1] is 3C system (Th1 vascular biology). As to the kind of experiment: BioMAP 3C system. It counts as cell-based, human. To be noted: at the compound's active concentration. From the text: The Diversity PLUS panel allows test agent characterization in an unbiased way across a broad set of systems modeling various human disease states. These systems are designed to model complex human tissue and disease biology of the vasculature, skin, lung, and inflammatory tissues. […] BioMAP systems are constructed with one or more primary cell types from healthy human donors, with stimuli (such as cytokines or growth factors) added to capture relevant signaling networks that naturally occur in human tissue or pathological conditions. […] Each test agent generates a signature BioMAP profile that is created from the changes in protein biomarker readouts within individual system environments. Biomarker readouts (7-17 per system) are selected for therapeutic and biological relevance, are predictive for disease outcomes or specific drug effects and are validated using agents with known mechanism of action (MoA). Each readout is measured quantitatively by immune-based methods that detect protein (e.g., ELISA) or functional assays that measure proliferation and viability. BioMAP readouts are diverse and include cell surface receptors, cytokines, chemokines, matrix molecules and enzymes. In total, the Diversity PLUS panel contains 148 biomarker readouts that capture biological changes that occur within the physiological context of the particular BioMAP system. […]

Assay [2] deals with LPS: Venular endothelial cells, peripheral blood mononuclear cells (TLR4 ligand). Briefly: BioMAP LPS system. It counts as cell-based, human. To be noted: at the compound's active concentration. Here is the method: (§1) Anti-inflammatory phenotypic profiling was conducted across 12 human primary cell-based systems as part of DiscoverX's BioMAP Diversity Plus program. These systems are designed to model complex human tissue and disease biology of the vasculature, skin, lung, and inflammatory tissues. Quantitative measurements of biomarker activities across this broad panel were used to assess each biochemical's anti-inflammatory activity at four concentrations ([…] and 2.2, 6.7 and 20 μM). […] Protein-based biomarkers from activated cell systems were measured and compared with controls. Biomarker activities were annotated when 2 or more consecutive concentrations change in the same directions relative to vehicle controls, were outside of the significance envelope and had at least one concentration with an effect size>20% (log 10 ratio)>0.1.
(§2) In the first system, human primary peripheral blood mononuclear cells and venular endothelial cells were stimulated with lipopolysaccharide (LPS) and incubated with the test agent, drug control, or vehicle control for 24 hours. In the second system, peripheral blood mononuclear cells and B cells were stimulated with α-IgM and T cell receptor ligands and incubated with the test agent, drug control, or vehicle control for 24 hours. In both systems, a negative, non-stimulated system was also included.
(§3) The Diversity PLUS panel allows test agent characterization in an unbiased way across a broad set of systems modeling various human disease states. These systems are designed to model complex human tissue and disease biology of the vasculature, skin, lung, and inflammatory tissues. Quantitative measurements of 148 biomarker activities across this broad panel, along with comparative analysis of biological activities from known bioactive agents, were used to predict and compare the efficacy and function of each selected compound at selected concentrations (6.7 and/or 20 μM).
(§4) BioMAP systems are constructed with one or more primary cell types from healthy human donors, with stimuli (such as cytokines or growth factors) added to capture relevant signaling networks that naturally occur in human tissue or pathological conditions. Vascular biology is modeled in both a Th1 (3C system) and a Th2 (4H system) inflammatory environment, as well as in a Th1 inflammatory state specific to arterial smooth muscle cells (CASM3C system). Additional systems recapitulate aspects of the systemic immune response including monocyte-driven Th1 inflammation (LPS system) or T cell stimulation (SAg system), chronic Th1 inflammation driven by macrophage activation (lMphg system) and the T cell-dependent activation of B cells that occurs in germinal centers (BT system). The BE3C system (Th1) and the BF4T system (Th2) represent airway inflammation of the lung, while the MyoF system models myofibroblast-lung tissue remodeling. Lastly, skin biology is addressed in the KF3CT system modeling Th1 cutaneous inflammation and the HDF3CGF system modeling wound healing.
(§5) Each test agent generates a signature BioMAP profile that is created from the changes in protein biomarker readouts within individual system environments. Biomarker readouts (7-17 per system) are selected for therapeutic and biological relevance, are predictive for disease outcomes or specific drug effects and are validated using agents with known mechanism of action (MoA). Each readout is measured quantitatively by immune-based methods that detect protein (e.g., ELISA) or functional assays that measure proliferation and viability. BioMAP readouts are diverse and include cell surface receptors, cytokines, chemokines, matrix molecules and enzymes. In total, the Diversity PLUS panel contains 148 biomarker readouts that capture biological changes that occur within the physiological context of the particular BioMAP system. […]

Assay [3] concerns human primary cell-based systems. Briefly: BioMAP Diversity PLUS panel, phenotypic profiling. Particulars: tested at 6.7 and/or 20 μM; 24 to 72 hours. Here is the method:
Anti-inflammatory phenotypic profiling was conducted across 12 human primary cell-based systems as part of DiscoverX's BioMAP Diversity Plus program. These systems are designed to model complex human tissue and disease biology of the vasculature, skin, lung, and inflammatory tissues. Quantitative measurements of biomarker activities across this broad panel were used to assess each biochemical's anti-inflammatory activity at four concentrations ([…] and 2.2, 6.7 and 20 μM). […] Protein-based biomarkers from activated cell systems were measured and compared with controls.
as §3, §4
Each test agent generates a signature BioMAP profile that is created from the changes in protein biomarker readouts within individual system environments. Biomarker readouts (7-17 per system) are selected for therapeutic and biological relevance, are predictive for disease outcomes or specific drug effects and are validated using agents with known mechanism of action (MoA). Each readout is measured quantitatively by immune-based methods that detect protein (e.g., ELISA) or functional assays that measure proliferation and viability. BioMAP readouts are diverse and include cell surface receptors, cytokines, chemokines, matrix molecules and enzymes. In total, the Diversity PLUS panel contains 148 biomarker readouts that capture biological changes that occur within the physiological context of the particular BioMAP system.
Activated BioMAP systems were incubated with each compound for 24 to 72 hours. Protein-based biomarkers from activated cell systems were measured and compared with non-treated control systems.

Assay [4] concerns BT: Peripheral blood mononuclear cells, B cells (α-IgM, TCR ligands). Briefly: BioMAP BT system. The class given is cell-based, human. To be noted: BT system; at the compound's active concentration. Here is the method:
as §1, §2, §3, §4, §5

`O=C(O)CNC(=O)c1ccccc1` [hippurate]: the “Tissue factor, log10 reduction vs nontreated controls” value in assay [1] is recorded as −0.10 log10. Further, in assay [2], the “CD40, log10 reduction vs nontreated controls” value is −0.11 log10. In addition, the Active concentrations in assay [3] lay in the range of 6.7 to 20 µM. The “Secreted IgG, log10 reduction vs nontreated controls” value in assay [4] is −0.21 log10.
